ChEMBL document CHEMBL1156056, “Phosphoinositide-3-kinase (PI3K) inhibitors: identification of new scaffolds using virtual screening” (Bioorg Med Chem Lett, 2009)

Assays:
[1] = Inhibition of bovine recombinant PI3Kgamma expressed in baculovirus-infected Sf21 cells at 100 uM; settings: Bos taurus
[2] = target: T1, Phosphatidylinositol 4,5-bisphosphate 3-kinase catalytic subunit beta isoform (Homo sapiens, UniProt P42338); experiment: Inhibition of human recombinant PI3Kbeta expressed in baculovirus-infected Sf21 cells at 100 uM
Target sequence in this assay (P42338 whole entry, looked up, canonical isoform): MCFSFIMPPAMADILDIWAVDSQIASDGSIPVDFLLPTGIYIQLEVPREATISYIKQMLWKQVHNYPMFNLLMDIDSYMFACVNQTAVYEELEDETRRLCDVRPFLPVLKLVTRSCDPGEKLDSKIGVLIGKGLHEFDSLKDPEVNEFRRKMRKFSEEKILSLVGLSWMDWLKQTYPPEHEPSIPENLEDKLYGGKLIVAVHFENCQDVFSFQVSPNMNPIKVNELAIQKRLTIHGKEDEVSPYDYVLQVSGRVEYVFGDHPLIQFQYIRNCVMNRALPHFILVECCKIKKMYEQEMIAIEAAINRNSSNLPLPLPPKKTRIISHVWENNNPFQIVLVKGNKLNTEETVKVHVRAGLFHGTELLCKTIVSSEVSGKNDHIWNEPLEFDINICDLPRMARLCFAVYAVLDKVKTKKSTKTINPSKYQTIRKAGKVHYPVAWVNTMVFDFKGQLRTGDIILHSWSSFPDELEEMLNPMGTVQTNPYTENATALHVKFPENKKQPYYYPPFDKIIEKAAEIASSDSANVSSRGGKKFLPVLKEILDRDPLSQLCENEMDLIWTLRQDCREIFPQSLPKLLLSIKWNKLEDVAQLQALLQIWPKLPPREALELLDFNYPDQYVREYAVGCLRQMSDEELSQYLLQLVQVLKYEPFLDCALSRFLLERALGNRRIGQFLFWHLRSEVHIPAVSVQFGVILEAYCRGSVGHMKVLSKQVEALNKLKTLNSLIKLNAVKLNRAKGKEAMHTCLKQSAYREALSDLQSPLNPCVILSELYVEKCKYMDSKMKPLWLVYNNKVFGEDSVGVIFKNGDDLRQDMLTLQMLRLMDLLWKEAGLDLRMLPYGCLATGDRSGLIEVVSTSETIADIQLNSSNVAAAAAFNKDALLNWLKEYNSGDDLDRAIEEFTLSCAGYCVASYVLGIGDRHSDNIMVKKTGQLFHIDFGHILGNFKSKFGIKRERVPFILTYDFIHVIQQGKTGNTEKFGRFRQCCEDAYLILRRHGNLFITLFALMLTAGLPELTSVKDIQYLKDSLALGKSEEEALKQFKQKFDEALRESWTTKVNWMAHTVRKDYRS

[3] = target: Phosphatidylinositol 4,5-bisphosphate 3-kinase catalytic subunit alpha isoform (Mus musculus) (UniProt P42337); experiment: Inhibition of mouse recombinant PI3Kalpha expressed in baculovirus-infected Sf21 cells at 100 uM
Sequence of Phosphatidylinositol 4,5-bisphosphate 3-kinase catalytic subunit alpha isoform (Mus musculus) (P42337 whole entry, canonical isoform): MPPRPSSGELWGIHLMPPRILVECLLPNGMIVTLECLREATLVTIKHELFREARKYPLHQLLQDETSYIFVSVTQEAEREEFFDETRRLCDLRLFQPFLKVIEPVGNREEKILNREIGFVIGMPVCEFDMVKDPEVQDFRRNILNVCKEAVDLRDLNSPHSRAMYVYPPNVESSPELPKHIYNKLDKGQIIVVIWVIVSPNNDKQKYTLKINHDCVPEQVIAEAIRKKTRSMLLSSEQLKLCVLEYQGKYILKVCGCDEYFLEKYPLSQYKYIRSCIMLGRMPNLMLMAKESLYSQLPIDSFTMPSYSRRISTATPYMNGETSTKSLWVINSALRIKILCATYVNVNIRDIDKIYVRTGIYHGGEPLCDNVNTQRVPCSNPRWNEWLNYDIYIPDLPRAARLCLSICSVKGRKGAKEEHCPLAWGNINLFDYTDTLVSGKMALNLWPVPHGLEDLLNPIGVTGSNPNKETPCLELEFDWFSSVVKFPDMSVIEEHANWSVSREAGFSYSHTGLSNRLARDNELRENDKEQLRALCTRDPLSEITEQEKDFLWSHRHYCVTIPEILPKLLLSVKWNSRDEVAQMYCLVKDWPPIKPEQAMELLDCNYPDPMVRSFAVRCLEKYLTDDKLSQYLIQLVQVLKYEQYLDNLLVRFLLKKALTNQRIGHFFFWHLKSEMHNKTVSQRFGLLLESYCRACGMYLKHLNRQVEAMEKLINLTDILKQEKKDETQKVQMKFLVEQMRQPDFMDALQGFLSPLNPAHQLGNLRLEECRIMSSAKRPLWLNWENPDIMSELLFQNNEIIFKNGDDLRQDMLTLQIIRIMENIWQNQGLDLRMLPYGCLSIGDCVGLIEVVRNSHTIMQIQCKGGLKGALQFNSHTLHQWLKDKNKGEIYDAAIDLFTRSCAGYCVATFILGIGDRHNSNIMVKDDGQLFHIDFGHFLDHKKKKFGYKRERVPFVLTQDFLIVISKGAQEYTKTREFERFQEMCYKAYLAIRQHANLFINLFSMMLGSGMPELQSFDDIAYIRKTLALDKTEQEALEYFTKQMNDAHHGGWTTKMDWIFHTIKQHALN

[4] = target: T2, Phosphatidylinositol 4,5-bisphosphate 3-kinase catalytic subunit delta isoform (Homo sapiens) (UniProt O00329); experiment: Inhibition of recombinant PI3Kdelta expressed in baculovirus-infected Sf21 cells at 100 uM
T2 sequence (whole entry): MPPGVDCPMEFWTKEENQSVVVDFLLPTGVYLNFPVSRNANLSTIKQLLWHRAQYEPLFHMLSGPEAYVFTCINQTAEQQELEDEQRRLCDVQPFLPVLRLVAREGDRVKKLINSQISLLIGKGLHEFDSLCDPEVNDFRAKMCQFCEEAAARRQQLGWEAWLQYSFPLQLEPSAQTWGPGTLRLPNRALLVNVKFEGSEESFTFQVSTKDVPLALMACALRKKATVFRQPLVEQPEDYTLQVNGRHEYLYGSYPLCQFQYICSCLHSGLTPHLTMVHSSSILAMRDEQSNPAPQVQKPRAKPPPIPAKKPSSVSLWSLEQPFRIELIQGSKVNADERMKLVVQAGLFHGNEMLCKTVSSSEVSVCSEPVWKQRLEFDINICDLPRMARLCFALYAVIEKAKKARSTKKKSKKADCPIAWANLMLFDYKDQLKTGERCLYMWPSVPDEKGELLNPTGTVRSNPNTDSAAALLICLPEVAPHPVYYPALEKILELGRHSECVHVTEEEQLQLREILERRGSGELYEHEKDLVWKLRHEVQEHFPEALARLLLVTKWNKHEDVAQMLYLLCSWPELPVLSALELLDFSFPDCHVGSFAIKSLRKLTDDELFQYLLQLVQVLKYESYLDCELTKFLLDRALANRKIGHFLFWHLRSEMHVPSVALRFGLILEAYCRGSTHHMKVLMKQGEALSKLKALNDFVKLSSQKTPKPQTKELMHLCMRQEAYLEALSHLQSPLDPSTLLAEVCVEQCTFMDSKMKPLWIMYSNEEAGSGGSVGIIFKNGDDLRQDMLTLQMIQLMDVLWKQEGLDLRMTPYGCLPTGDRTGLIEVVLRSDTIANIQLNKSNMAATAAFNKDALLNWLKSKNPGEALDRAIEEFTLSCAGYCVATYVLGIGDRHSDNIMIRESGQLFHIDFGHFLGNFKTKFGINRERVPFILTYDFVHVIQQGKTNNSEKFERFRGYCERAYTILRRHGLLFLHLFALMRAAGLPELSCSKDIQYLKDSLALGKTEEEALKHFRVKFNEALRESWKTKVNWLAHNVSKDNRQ

[5] = target: T3, Phosphatidylinositol 4,5-bisphosphate 3-kinase catalytic subunit delta isoform (Homo sapiens, UniProt O00329); experiment: Inhibition of recombinant PI3Kdelta expressed in baculovirus-infected Sf21 cells
T3 sequence (O00329 whole entry): T2 sequence (whole entry)

[6] = target: Phosphatidylinositol 4,5-bisphosphate 3-kinase catalytic subunit alpha isoform (Mus musculus, UniProt P42337); experiment: Inhibition of mouse recombinant PI3Kalpha expressed in baculovirus-infected Sf21 cells
Sequence of Phosphatidylinositol 4,5-bisphosphate 3-kinase catalytic subunit alpha isoform (P42337 whole entry, canonical isoform): as the sequence (P42337 whole entry, canonical isoform) above

[7] = target: T1, Phosphatidylinositol 4,5-bisphosphate 3-kinase catalytic subunit beta isoform; experiment: Inhibition of human recombinant PI3Kbeta expressed in baculovirus-infected Sf21 cells
Target sequence in this assay (P42338 whole entry, canonical isoform): as the sequence (P42338 whole entry, looked up, canonical isoform) above

[8] = Inhibition of bovine recombinant PI3Kgamma expressed in baculovirus-infected Sf21 cells; design: species or system Bos taurus
[9] = Selectivity for PI3Kgamma over PI3Kbeta
[10] = Selectivity for PI3Kgamma over PI3Kalpha
[11] = Selectivity for PI3Kgamma over PI3Kdelta

| SMILES | inhibition [2] [%] | inhibition [3] [%] | inhibition [4] [%] | IC50 [5] [µM] | IC50 [6] [µM] | IC50 [7] [µM] | IC50 [8] [µM] | Ratio [9] | Ratio [10] | Ratio [11] | inhibition [1] [%] |
| --- | --- | --- | --- | --- | --- | --- | --- | --- | --- | --- | --- |
| O=c1cc(N2CCOCC2)oc2c(-c3ccccc3)cccc12 [LY-294002] | > 40 | > 40 | > 40 | – | – | – | – | – | – | – | > 40 |
| O=C1NC(=O)/C(=C/c2ccc3nccnc3c2)S1 | – | – | – | – | – | – | – | > 30 | 7.5 | > 30 | – |
| COC(=O)c1ccc(CSc2ncnc3sc(C)c(C)c23)o1 | > 40 | > 40 | > 40 | > 100 | > 100 | > 100 | 71 | – | – | – | > 40 |
| COc1ccccc1-c1nc(-c2cc3cc(C)ccc3[nH]c2=O)no1 | > 40 | > 40 | > 40 | – | > 100 | – | 75 | – | – | – | > 40 |
| COc1nc(-c2ccccc2)ccc1-c1noc(-c2ccncc2)n1 | > 40 | > 40 | > 40 | – | 78 | > 100 | > 100 | – | – | – | > 40 |

More lines, in order of falling IC50 [6], values ahead:

| inhibition [2] [%] | inhibition [3] [%] | inhibition [4] [%] | IC50 [5] [µM] | IC50 [6] [µM] | IC50 [7] [µM] | IC50 [8] [µM] | Ratio [9] | Ratio [10] | Ratio [11] | SMILES | inhibition [1] [%] |
| --- | --- | --- | --- | --- | --- | --- | --- | --- | --- | --- | --- |
| > 40 | > 40 | > 40 | 47 | 38 | > 100 | 16 | – | – | – | Cc1ccc2cc3c(OC(=O)COc4ccccc4)nn(C)c3nc2c1 | > 40 |
| > 40 | > 40 | > 40 | > 100 | 19 | 12 | 6 | – | – | – | O=C(CCn1c(=O)oc2cc(Cl)ccc21)Nc1ccccc1 | > 40 |
| > 40 | > 40 | > 40 | 4 | 3 | 14 | 12 | – | – | – | O=c1oc2cc(O)ccc2cc1-c1nc2ccccc2s1 | > 40 |
| > 40 | > 40 | > 40 | 0.9 | 0.9 | 3 | 4 | – | – | – | COc1cccc(-c2nc(-c3cc4cc(OC)ccc4[nH]c3=O)no2)c1 | > 40 |
